Experimental data as given in the supplement of paper PMC10627819.

Columns and labels:
B. subtilis 168 [1] = experiment: fitness (endpoint OD595 vs no drug) (fraction); higher = more growth
In short: (§1)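 Growth medium was TSB, LB Lennox or CY, and plates were kept at 37 °C. Inoculation was at OD595 0.01 in 384-well plates, at 30 µl per well or 55 µl for S. pneumoniae. OD595 was monitored every 30 min for 14 h and background-subtracted using the first reading. Fitness is the optical density on entering stationary phase divided by the robust mean of no-drug controls, with values capped at 1.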

S. pneumoniae D39V [2] = experiment: as above
In short: as §1

S. aureus DSM 20231 [3] = experiment: as above
In short: as §1

S. aureus Newman [4] = experiment: as above
In short: as §1

B. subtilis 168 [5] = experiment: Bliss interaction score (quartile over a dose matrix) (fitness difference); higher = more antagonism (negative = synergy)
In short: (§2)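 The Bliss score subtracts expected fitness, the product of the single-drug fitness values, from observed fitness. Fitness is plate-normalised OD595 at entry into stationary phase, relative to the robust no-drug mean and capped at 1, with single-drug fitness inferred from combinations. Summaries are quartiles over technical, biological and donor/recipient replicates.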

S. pneumoniae D39V [6] = experiment: as above
In short: as §2

S. aureus DSM 20231 [7] = experiment: as above
In short: as §2

S. aureus Newman [8] = experiment: as above
In short: as §2
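Throughout, for Bliss interaction score (quartile over a dose matrix): first quartile when negative (synergy) and third quartile when positive (antagonism).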

C[C@@H]1O[C@@H]1P(=O)(O)O [Fosfomycin] + Cc1cc(NS(=O)(=O)c2ccc(N)cc2)no1 [Sulfamethoxazol]
fitness, one replicate
Details | first compound 0.781 µg/mL | first compound 1.562 µg/mL | first compound 3.124 µg/mL | first compound 6.248 µg/mL
B. subtilis 168 [1], partner 0.5 µg/mL | – | 0.794 | 0.686 | 0.592
S. aureus Newman [4], partner 8 µg/mL | 0.782 | 0.733 | 0.519 | –

fitness
Details | partner 1 µg/mL | partner 2 µg/mL | partner 4 µg/mL
B. subtilis 168 [1], first compound 1.562 µg/mL | 0.652 | 0.673 | 0.679
B. subtilis 168 [1], first compound 3.124 µg/mL | 0.548 | 0.557 | 0.516
B. subtilis 168 [1], first compound 6.248 µg/mL | 0.489 | 0.378 | 0.379
S. aureus DSM 20231 [3], first compound 0.781 µg/mL | 0.709 | 0.696 | 0.678
S. aureus DSM 20231 [3], first compound 1.562 µg/mL | 0.547 | 0.581 | 0.581
S. aureus DSM 20231 [3], first compound 3.124 µg/mL | 0.49 | 0.503 | 0.509
S. aureus Newman [4], first compound 0.781 µg/mL | 0.627 | 0.705 | 0.71
S. aureus Newman [4], first compound 1.562 µg/mL | 0.513 | 0.572 | 0.496
S. aureus Newman [4], first compound 3.124 µg/mL | 0.211 | – | 0.141
S. pneumoniae D39V [2], first compound 1.25 µg/mL | 0.957 | 0.935 | 0.955
S. pneumoniae D39V [2], first compound 2.5 µg/mL | 0.918 | 0.925 | 0.943
S. pneumoniae D39V [2], first compound 5 µg/mL | 0.757 | 0.756 | 0.78

Details | Bliss interaction score
B. subtilis 168 [5] | -0.0756
S. aureus DSM 20231 [7] | -0.0688
S. aureus Newman [8] | 0.0933
S. pneumoniae D39V [6] | -0.0416

COc1cccc2c1C(=O)c1c(O)c3c(c(O)c1C2=O)C[C@@](O)(C(=O)CO)C[C@@H]3O[C@H]1C[C@H](N)[C@H](O)[C@H](C)O1 [Doxorubicin] + CN[C@@H]1[C@H](O)[C@H](NC)[C@H]2O[C@@]3(O)C(=O)C[C@@H](C)O[C@H]3O[C@@H]2[C@H]1O [Spectinomycin]
fitness
Details | first compound 0.25 µg/mL | first compound 0.5 µg/mL | first compound 0.625 µg/mL | first compound 1 µg/mL | first compound 1.25 µg/mL | first compound 2.5 µg/mL
B. subtilis 168 [1], partner 2 µg/mL | – | – | 0.919 | – | 0.905 | 0.62
B. subtilis 168 [1], partner 4 µg/mL | – | – | 0.965 | – | 0.954 | 0.594
B. subtilis 168 [1], partner 8 µg/mL | – | – | 0.817 | – | 0.88 | 0.615
S. aureus DSM 20231 [3], partner 4 µg/mL | – | – | 0.901 | – | 0.846 | 0.808
S. aureus DSM 20231 [3], partner 8 µg/mL | – | – | 0.882 | – | 0.89 | 0.84
S. aureus DSM 20231 [3], partner 16 µg/mL | – | – | 0.789 | – | 0.824 | 0.736
S. aureus Newman [4], partner 4 µg/mL | – | – | 0.796 | – | 0.754 | 0.71
S. aureus Newman [4], partner 8 µg/mL | – | – | 0.797 | – | 0.762 | 0.681
S. aureus Newman [4], partner 16 µg/mL | – | – | 0.713 | – | 0.623 | 0.577
S. pneumoniae D39V [2], partner 4 µg/mL | 0.908 | 0.938 | – | 0.921 | – | –
S. pneumoniae D39V [2], partner 8 µg/mL | 0.827 | 0.862 | – | 0.838 | – | –
S. pneumoniae D39V [2], partner 16 µg/mL | 0.686 | 0.661 | – | 0.632 | – | –

fitness, one replicate
Details | first compound 0.625 µg/mL | first compound 1.25 µg/mL | first compound 2.5 µg/mL
S. aureus DSM 20231 [3], partner 32 µg/mL | 0.768 | 0.732 | 0.624
S. aureus DSM 20231 [3], partner 64 µg/mL | 0.0549 | 0.0594 | 0.0266
S. aureus Newman [4], partner 32 µg/mL | 0.549 | 0.394 | 0.215
S. aureus Newman [4], partner 64 µg/mL | 0.0592 | 0.0432 | 0.0224

Details | Bliss interaction score
B. subtilis 168 [5] | 0.0605
S. aureus DSM 20231 [7] | -0.0571
S. aureus Newman [8] | -0.0787
S. pneumoniae D39V [6] | 0.0399

COc1cccc2c1C(=O)c1c(O)c3c(c(O)c1C2=O)C[C@@](O)(C(=O)CO)C[C@@H]3O[C@H]1C[C@H](N)[C@H](O)[C@H](C)O1 [Doxorubicin] + CCN(CC)CCOC(=O)c1ccc(N)cc1 [Procaine]
fitness
Details | first compound 0.25 µg/mL | first compound 0.5 µg/mL | first compound 0.625 µg/mL | first compound 1 µg/mL | first compound 1.25 µg/mL | first compound 2.5 µg/mL
B. subtilis 168 [1], partner 85.5 µg/mL | – | – | 0.934 | – | 0.89 | 0.672
B. subtilis 168 [1], partner 171 µg/mL | – | – | 0.961 | – | 0.894 | 0.654
B. subtilis 168 [1], partner 342 µg/mL | – | – | 0.887 | – | 0.879 | 0.702
S. aureus DSM 20231 [3], partner 85.5 µg/mL | – | – | 0.829 | – | 0.823 | 0.748
S. aureus DSM 20231 [3], partner 171 µg/mL | – | – | 0.926 | – | 0.916 | 0.832
S. aureus DSM 20231 [3], partner 342 µg/mL | – | – | 0.898 | – | 0.866 | 0.804
S. aureus Newman [4], partner 85.5 µg/mL | – | – | 0.801 | – | 0.823 | 0.745
S. aureus Newman [4], partner 171 µg/mL | – | – | 0.79 | – | 0.835 | 0.752
S. aureus Newman [4], partner 342 µg/mL | – | – | 0.815 | – | 0.747 | 0.764
S. pneumoniae D39V [2], partner 85.5 µg/mL | 0.988 | ≥ 1 | – | 0.917 | – | –
S. pneumoniae D39V [2], partner 171 µg/mL | 0.963 | 0.98 | – | 0.892 | – | –
S. pneumoniae D39V [2], partner 342 µg/mL | 0.97 | 0.996 | – | 0.855 | – | –

Details | Bliss interaction score
B. subtilis 168 [5] | 0.095
S. aureus DSM 20231 [7] | -0.0642
S. aureus Newman [8] | -0.058
S. pneumoniae D39V [6] | 0.07

COc1cccc2c1C(=O)c1c(O)c3c(c(O)c1C2=O)C[C@@](O)(C(=O)CO)C[C@@H]3O[C@H]1C[C@H](N)[C@H](O)[C@H](C)O1 [Doxorubicin] + CN(N=O)C(=O)N[C@@H](C=O)[C@@H](O)[C@H](O)[C@H](O)CO [Streptozotocin]
fitness
Details | first compound 0.25 µg/mL | first compound 0.5 µg/mL | first compound 0.625 µg/mL | first compound 1 µg/mL | first compound 1.25 µg/mL | first compound 2.5 µg/mL
B. subtilis 168 [1], partner 0.15 µg/mL | – | – | 0.961 | – | 0.957 | 0.663
B. subtilis 168 [1], partner 0.3 µg/mL | – | – | ≥ 1 | – | 0.956 | 0.582
B. subtilis 168 [1], partner 0.6 µg/mL | – | – | 0.993 | – | 0.939 | 0.627
S. aureus DSM 20231 [3], partner 0.15 µg/mL | – | – | 0.762 | – | 0.828 | 0.787
S. aureus DSM 20231 [3], partner 0.3 µg/mL | – | – | 0.741 | – | 0.726 | 0.746
S. aureus DSM 20231 [3], partner 0.6 µg/mL | – | – | 0.631 | – | 0.651 | 0.595
S. aureus Newman [4], partner 0.15 µg/mL | – | – | 0.702 | – | 0.7 | 0.709
S. aureus Newman [4], partner 0.3 µg/mL | – | – | 0.656 | – | 0.68 | 0.646
S. aureus Newman [4], partner 0.6 µg/mL | – | – | 0.607 | – | 0.604 | 0.541
S. pneumoniae D39V [2], partner 1.2 µg/mL | 0.919 | 0.929 | – | 0.852 | – | –
S. pneumoniae D39V [2], partner 2.4 µg/mL | 0.898 | 0.919 | – | 0.866 | – | –
S. pneumoniae D39V [2], partner 4.8 µg/mL | 0.966 | 0.972 | – | 0.91 | – | –

Details | Bliss interaction score
B. subtilis 168 [5] | 0.0771
S. aureus DSM 20231 [7] | -0.0251
S. aureus Newman [8] | 0.11
S. pneumoniae D39V [6] | 0.0618
